Each block holds one substance with its values, some of them ahead of it.
Assays:
hPDE5 mutants [1] = assay: GFP expression (MFI) by FACS in HEK293 cells expressing hPDE5 constructs
Protocol: The mutant library was ligated in frame with an AcGFP reporter at C-terminus and cloned into pLVX-IRES—Puro vectors. […] DNA was extracted from the cell pool, cloned into vectors, and transformed into E. coli. Individual clones were sequenced and cloned in frame with a linker [sequence] […] HEK293 cells were transduced with individual clones and selected with puromycin.
The GFP expression in cells expressing hPDE5 constructs was measured by FACS.
The stability of hPDE5 mutants was measured using FACS and mean fluorescence intensity (MFI) of GFP was calculated.

hPDE5 mutants [2] = molecular target: T1, hPDE5 mutants (Homo sapiens, UniProt O76074); assay: Western blot of AcGFP/GFP protein levels in HCT 116 cells expressing hPDE5 mutants; assay type: cell-based; set-up: GFP protein levels (western blot); fused on or other part: AcGFP reporter through a linker; details: vardenafil vs DMSO, HCT 116, R732 mutants
Protocol: Protein expression analysis of the combination mutants was performed in parallel via western blot. […] GAPDH levels were also analyzed to ensure even protein loading.

hPDE5 mutants [3] = assay: GFP MFI by FACS in HCT116 cells transduced with hPDE5 constructs; assay type: cell-based, human; details: for MFI: 48 hours, HCT 116 cells; for Sildenafil Destabilizing mutation coefficient / Vardenafil Destabilizing mutation coefficient / GFP by FACS, Sildenafil 0 μM (DMSO) / GFP by FACS, Vardenafil 0 μM (DMSO): hotspot constructs; for Sildenafil Destabilizing mutation coefficient: DMSO control of Sildenafil; for Sildenafil Destabilizing mutation coefficient / Vardenafil Destabilizing mutation coefficient: vs OT-001075; for Vardenafil Destabilizing mutation coefficient: DMSO control of Vardenafil; for GFP by FACS, Sildenafil 0 μM (DMSO): HCT116, DMSO control of Sildenafil; for GFP by FACS, Vardenafil 0 μM (DMSO): HCT116, DMSO control of Vardenafil
Protocol: (§1) Desirable qualities of a DD include, low expression of the SRE in the absence of ligand and ligand dependent stabilization of the SRE. Constructs were generated using DDs linked to GFP using an SG linker. […] The mean fluorescence intensity (MFI) of GFP was analyzed by FACS. […] Destabilizing mutation coefficient less than 1 are desirable.
(§2) Mean fluorescence intensity (MFI) was measured by FACS. […] Destabilizing mutation coefficient ratios less than 1 are desirable.
(§3) Mean fluorescence intensity (MFI) was measured by FACS. […] Destabilizing mutation co-efficient ratios less than 1 are desirable.
(§4) Mean fluorescence intensity (MFI) was measured by FACS. […] Destabilizing mutation coefficient less than 1 are desirable.
as §4
(§5) Mean fluorescence intensity (MFI) of GFP was measured by FACS.
(§6) Mean fluorescence intensity (MFI) was measured by FACS.
(§7) The media containing the ligand was removed and fresh media without the ligand was added.
(§8) The properties of the DDs were analyzed in the presence and absence of ligands via FACS as previously described.
(§9) GFP fluorescence was measured by FACS.
(§10) The properties of the DDs were analyzed via FACS both in the presence and absence of ligands.
as §9

hPDE5 mutants [4] = molecular target: T1, hPDE5 mutants; assay: as above; assay type: cell-based; details: for Vardenafil Stabilization ratio / Sildenafil Stabilization ratio / GFP by FACS, Sildenafil 10 μM / GFP by FACS, Vardenafil 1 μM: hotspot constructs; for Vardenafil Stabilization ratio: 1 μM Vardenafil; for Sildenafil Stabilization ratio: 10 μM Sildenafil; for GFP by FACS, Sildenafil 10 μM / GFP by FACS, Vardenafil 1 μM: HCT116
Protocol: as §1, §2, §3, §4, §4, §5, §6, §7, §8, §9, §10, §9

[5] = Sildenafil 0.0005 μM, 48 h, HEK293
[6] = Sildenafil 3.33 μM, 48 h, HEK293
[7] = Sildenafil 10 μM, 48 h, HEK293 (dose titration)
[8] = Sildenafil 10 μM, 48 h, HEK293 (time course)
[9] = Vardenafil 0.0005 μM, 48 h, HEK293
[10] = Vardenafil 3.33 μM, 48 h, HEK293
[11] = Vardenafil (10 μM), 48 h, Table 25, cell line not given in table
[12] = Table 44, Vardenafil 0.01 μM, 48 h, HCT 116
[13] = Table 44, Vardenafil 0.04 μM, 48 h, HCT 116
[14] = Table 44, Vardenafil 3.33 μM, 48 h, HCT 116
[15] = Table 44, Vardenafil 10 μM, 48 h, HCT 116
[16] = Table 44, Vardenafil 30 μM, 48 h, HCT 116
[17] = Table 44, Vardenafil 1000 μM, 48 h, HCT 116
[18] = Table 45, Sildenafil 0.01 μM, 48 h, HCT 116
[19] = Table 45, Sildenafil 0.04 μM, 48 h, HCT 116
[20] = Table 45, Sildenafil 3.33 μM, 48 h, HCT 116
[21] = Table 45, Sildenafil 10 μM, 48 h, HCT 116
[22] = Table 45, Sildenafil 30 μM, 48 h, HCT 116
[23] = Table 45, Sildenafil 1000 μM, 48 h, HCT 116
[24] = Tadalafil 0.01 μM, 48 hours, HCT 116 cells

MFI (hPDE5 mutants [4]; [12]): 1810
MFI (hPDE5 mutants [4]; [13]): 3356
MFI (hPDE5 mutants [4]; [14]): 14531
MFI (hPDE5 mutants [4]; [15]): 17645
MFI (hPDE5 mutants [4]; [16]): 24322
MFI (hPDE5 mutants [4]; [17]): 24322
MFI (hPDE5 mutants [4]; [18]): 579
MFI (hPDE5 mutants [4]; [19]): 612
MFI (hPDE5 mutants [4]; [20]): 1709
MFI (hPDE5 mutants [4]; [21]): 2733
MFI (hPDE5 mutants [4]; [22]): 4197
MFI (hPDE5 mutants [4]; [23]): 4197
MFI (hPDE5 mutants [4]; [24]): 498
Vardenafil Stabilization ratio (hPDE5 mutants [4]): 3.89
Sildenafil Stabilization ratio (hPDE5 mutants [4]): 0.85
GFP by FACS, Sildenafil 10 μM (hPDE5 mutants [4]): 170
GFP by FACS, Vardenafil 1 μM (hPDE5 mutants [4]): 587
Substance: OT-001189: hPDE5 R732I AcGFP construct
GFP protein levels (western blot) (hPDE5 mutants [2]): Modest ligand dependent stabilization of GFP levels
MFI (hPDE5 mutants [3]; Tadalafil 11.11 μM): 2746
MFI (hPDE5 mutants [3]; Tadalafil 33.33 μM): 3970
MFI (hPDE5 mutants [3]; Tadalafil 100 μM): 5487
MFI (hPDE5 mutants [3]; Tadalafil 1000 μM): 5487
Sildenafil Destabilizing mutation coefficient (hPDE5 mutants [3]): 0.2
Vardenafil Destabilizing mutation coefficient (hPDE5 mutants [3]): 0.94
GFP by FACS, Sildenafil 0 μM (DMSO) (hPDE5 mutants [3]): 201
GFP by FACS, Vardenafil 0 μM (DMSO) (hPDE5 mutants [3]): 151

GFP protein levels (western blot) (hPDE5 mutants [2]): strong stabilization of GFP levels
Vardenafil Stabilization ratio (hPDE5 mutants [4]): 0.87
Sildenafil Stabilization ratio (hPDE5 mutants [4]): 0.95
GFP by FACS, Sildenafil 10 μM (hPDE5 mutants [4]): 361
GFP by FACS, Vardenafil 1 μM (hPDE5 mutants [4]): 310
Substance: OT-001190: hPDE5 R732P AcGFP construct
Sildenafil Destabilizing mutation coefficient (hPDE5 mutants [3]): 0.38
Vardenafil Destabilizing mutation coefficient (hPDE5 mutants [3]): 2.2
GFP by FACS, Sildenafil 0 μM (DMSO) (hPDE5 mutants [3]): 379
GFP by FACS, Vardenafil 0 μM (DMSO) (hPDE5 mutants [3]): 355

Further lines, the substance ahead of its results:

Substance: OT-001083: hPDE5-Y728L AcGFP construct
MFI (hPDE5 mutants [1]; [5]): 4422
Stabilization ratio (hPDE5 mutants [1]; [5]): 1.01
MFI (hPDE5 mutants [1]; [6]): 17960
Stabilization ratio (hPDE5 mutants [1]; [6]): 4.09
MFI (hPDE5 mutants [1]; Sildenafil 10 μM, 2 h, HEK293): 7290
Stabilization ratio (hPDE5 mutants [1]; Sildenafil 10 μM, 2 h, HEK293): 1.37
MFI (hPDE5 mutants [1]; Sildenafil 10 μM, 4 h, HEK293): 8675
Stabilization ratio (hPDE5 mutants [1]; Sildenafil 10 μM, 4 h, HEK293): 1.64
MFI (hPDE5 mutants [1]; Sildenafil 10 μM, 6 h, HEK293): 10929
Stabilization ratio (hPDE5 mutants [1]; Sildenafil 10 μM, 6 h, HEK293): 2.06
MFI (hPDE5 mutants [1]; Sildenafil 10 μM, 16 h, HEK293): 19034
Stabilization ratio (hPDE5 mutants [1]; Sildenafil 10 μM, 16 h, HEK293): 3.59
MFI (hPDE5 mutants [1]; Sildenafil 10 μM, 24 h, HEK293): 27246
Stabilization ratio (hPDE5 mutants [1]; Sildenafil 10 μM, 24 h, HEK293): 5.14
MFI (hPDE5 mutants [1]; [7]): 32480
Stabilization ratio (hPDE5 mutants [1]; [7]): 7.40
MFI (hPDE5 mutants [1]; [8]): 34796
Stabilization ratio (hPDE5 mutants [1]; [8]): 6.56
MFI (hPDE5 mutants [1]; [9]): 7894
Stabilization ratio (hPDE5 mutants [1]; [9]): 0.99
MFI (hPDE5 mutants [1]; [10]): 134306
Stabilization ratio (hPDE5 mutants [1]; [10]): 16.85
MFI (hPDE5 mutants [1]; Vardenafil 10 μM, 48 h, HEK293): 166236
Stabilization ratio (hPDE5 mutants [1]; Vardenafil 10 μM, 48 h, HEK293): 20.86
Stabilization ratio (hPDE5 mutants [1]; Vardenafil (1 μM), 48 h, Table 25, cell line not given in table): 13.26
MFI (hPDE5 mutants [1]; Vardenafil (1 μM), 48 h, Table 25, cell line not given in table (HEK293, HCT-116, SKOV-3)): 68816
MFI (hPDE5 mutants [1]; [11]): 123150
Stabilization ratio (hPDE5 mutants [1]; [11]): 23.72

Substance: OT-001187: hPDE5 R732A AcGFP construct
GFP protein levels (western blot) (hPDE5 mutants [2]): strong stabilization of GFP levels
MFI (hPDE5 mutants [3]; Tadalafil 11.11 μM): 5126
MFI (hPDE5 mutants [3]; Tadalafil 33.33 μM): 6264
MFI (hPDE5 mutants [3]; Tadalafil 100 μM): 6301
MFI (hPDE5 mutants [3]; Tadalafil 1000 μM): 6301
Sildenafil Destabilizing mutation coefficient (hPDE5 mutants [3]): 0.29
Vardenafil Destabilizing mutation coefficient (hPDE5 mutants [3]): 1.09
GFP by FACS, Sildenafil 0 μM (DMSO) (hPDE5 mutants [3]): 288
GFP by FACS, Vardenafil 0 μM (DMSO) (hPDE5 mutants [3]): 175
MFI (hPDE5 mutants [4]; [12]): 2551
MFI (hPDE5 mutants [4]; [13]): 8345
MFI (hPDE5 mutants [4]; [14]): 16783
MFI (hPDE5 mutants [4]; [15]): 18945
MFI (hPDE5 mutants [4]; [16]): 22548
MFI (hPDE5 mutants [4]; [17]): 22548
MFI (hPDE5 mutants [4]; [18]): 808
MFI (hPDE5 mutants [4]; [19]): 1025
MFI (hPDE5 mutants [4]; [20]): 3769
MFI (hPDE5 mutants [4]; [21]): 4716
MFI (hPDE5 mutants [4]; [22]): 5694
MFI (hPDE5 mutants [4]; [23]): 5694
MFI (hPDE5 mutants [4]; [24]): 752
Vardenafil Stabilization ratio (hPDE5 mutants [4]): 4.87
Sildenafil Stabilization ratio (hPDE5 mutants [4]): 1.21
GFP by FACS, Sildenafil 10 μM (hPDE5 mutants [4]): 348
GFP by FACS, Vardenafil 1 μM (hPDE5 mutants [4]): 853

Substance: OT-001188: hPDE5 R732V AcGFP construct
GFP protein levels (western blot) (hPDE5 mutants [2]): Modest ligand dependent stabilization of GFP levels
Sildenafil Destabilizing mutation coefficient (hPDE5 mutants [3]): 0.19
Vardenafil Destabilizing mutation coefficient (hPDE5 mutants [3]): 0.93
GFP by FACS, Sildenafil 0 μM (DMSO) (hPDE5 mutants [3]): 189
GFP by FACS, Vardenafil 0 μM (DMSO) (hPDE5 mutants [3]): 150
Vardenafil Stabilization ratio (hPDE5 mutants [4]): 3.38
Sildenafil Stabilization ratio (hPDE5 mutants [4]): 0.6
GFP by FACS, Sildenafil 10 μM (hPDE5 mutants [4]): 113
GFP by FACS, Vardenafil 1 μM (hPDE5 mutants [4]): 507

From patent US20220403001A1, “PDE5 DERIVED REGULATORY CONSTRUCTS AND METHODS OF USE IN IMMUNOTHERAPY” (Obsidian Therapeutics, Inc., priority 2018, published 2022)
